≈ marks a conversion by molar mass, not a printed value. Like-named read-outs stand apart in the source and are kept apart here.
Legend:
[1] = tested on: Bac. subtilis; assay: In vitro minimum inhibitory concentration (MIC), tube dilution test; format: cell-based; conditions: Bacillus subtilis; Bac. subtilis (07A); brain-heart infusion broth, 20hour incubation at 37° C.; read-out: Minimal Inhibitory Test Conens. (MIC)
Description: (§1) A. In vitro: mimimum inhibitory concentration (MIC)
(§2) The compound was tested in a standard bacteriological tube dilution test for MIC for a variety of bacteria. Stock cultures of the bacteria listed in Table 1 were grown in bacterial culture media at 37° C. overnight and diluted in culture tubes to a previously determined concentration proper for the test. The compound was added to result in final concentrations of 10, 2, 0.4 and 0.08 μg/ml. These were incubated for 18 hours at 37° C. and then observed to determine if growth of bacteria had occurred. The lowest concentration of the compound that inhibited bacterial growth in the MIC.
(§3) *brain-heart infusion broth, 20hour incubation at 37° C.

[2] = tested on: E. coli; assay: as above; format: cell-based; conditions: Escherichia coli, 20 h, brain-heart infusion broth, 20hour incubation at 37° C., read-out: Minimal Inhibitory Test Conens. (MIC)
Description: as §1, §2, §3

[3] = tested on: Kleb. aerobacter; assay: as above; format: cell-based; conditions: Kleb. aerobacter (20F); brain-heart infusion broth, 20hour incubation at 37° C.; read-out: Minimal Inhibitory Test Conens. (MIC)
Description: as §1, §2, §3

[4] = tested on: Proteus sp.; assay: as above; format: cell-based; conditions: brain-heart infusion broth, 20hour incubation at 37° C., read-out: Minimal Inhibitory Test Conens. (MIC)
Description: as §1, §2, §3

[5] = tested on: Proteus vulgaris; assay: as above; format: cell-based; conditions: Proteus vulgaris (14P); brain-heart infusion broth, 20hour incubation at 37° C.; read-out: Minimal Inhibitory Test Conens. (MIC)
Description: as §1, §2, §3

[6] = tested on: Sal. choleraesuis; assay: as above; format: cell-based; conditions: Salmonella enterica, 20 h, read-out: Minimal Inhibitory Test Conens. (MIC)
Description: as §1, §2, §3

[7] = tested on: Sal. gallinarum; assay: as above; format: cell-based; conditions: Salmonella enterica, 20 h, brain-heart infusion broth, 20hour incubation at 37° C., read-out: Minimal Inhibitory Test Conens. (MIC)
Description: as §1, §2, §3

[8] = tested on: Sal. typhimurium; assay: as above; format: cell-based; conditions: Salmonella enterica, 20 h, brain-heart infusion broth, 20hour incubation at 37° C., read-out: Minimal Inhibitory Test Conens. (MIC)
Description: as §1, §2, §3

[9] = tested on: Sal. typhi; assay: as above; format: cell-based; conditions: Salmonella enterica, TYPHI, 20 h, brain-heart infusion broth, 20hour incubation at 37° C.
Description: as §1, §2, §3

[10] = tested on: Ser. marcescens; assay: as above; format: cell-based; conditions: Serratia marcescens; Ser. marcescens (22); brain-heart infusion broth, 20hour incubation at 37° C.; read-out: Minimal Inhibitory Test Conens. (MIC)
Description: as §1, §2, §3

[11] = tested on: Shiq. dysenteriae; assay: as above; format: cell-based; conditions: 20 h, read-out: Minimal Inhibitory Test Conens. (MIC)
Description: as §1, §2, §3

[12] = tested on: Staph. aureus; assay: as above; format: cell-based; conditions: Staphylococcus aureus; Staph. aureus (08F); brain-heart infusion broth, 20hour incubation at 37° C.; read-out: Minimal Inhibitory Test Conens. (MIC)
Description: as §1, §2, §3

[13] = tested on: Strep. pyogenes; assay: as above; format: cell-based; conditions: Streptococcus pyogenes; Strep. pyogenes (10V); brain-heart infusion broth, 20hour incubation at 37° C.; read-out: Minimal Inhibitory Test Conens. (MIC)
Description: as §1, §2, §3

[14] = in vivo; conditions: mouse, in vivo, po; for TD50: doses given in mg./kg
Description: 17- to 24-hour fasted female white mice, 16-20 g. each, or rats, 70-90 g. each were dosed orally with test drug (or standard) at 0, 4, 12, 36, 108 or 324 mg./kg.
Ataxia--The mouse or rat was placed upright on the bench top facing away from the observer. Motor incoordination manifested by abnormal gait or lack of precision during purposive movements constituted ataxia.
Vertical Bar--The mouse or rat was swung by the tail with head pointing down to a 0.5" diameter (1" diameter for rats), 30.5 cm long vertical rod covered with adhesive tape. Inability to grip the rod with the front paws, sliding or failure to move after being prodded constituted vertical bar loss.
Body Temperature--The rectal temperatures of the mice and rats were taken using a KC-1 thermocouple probe.
Excitement and Irritability--Increased spontaneous motor activity, running and jumping prior to handling were recorded as excitement. Upon handling, jumping, jerking, biting and squeaking were recorded as irritability.
Anorexia--At the end of the 0.5 hour testing period, each mouse was transferred to an individual, clear, Lucite® compartment (13.3 cm×12.7 cm×12.7 cm) with a 0.64 cm×0.64 cm wire mesh floor. Inside each compartment there was a section of a black Lucite® bar [13 cm×1.2 cm×1.2 cm) with ten spot depressions (0.8 cm diameter) each containing 0.05 ml. of 50% sweetened condensed milk. 30 Minutes later the number of milk spots consumed was counted. 5 Mice per drug dose can drink a maximum of 50 spots (2.5 ml. of milk). 15 or fewer spots consumed by 5 mice constituted anorexia.

[15] = General pharmacology screen in rats; conditions: rat, in vivo
[16] = tested on: Pseud. aeruginosa; assay: In vitro minimum inhibitory concentration (MIC), tube dilution test; format: cell-based; conditions: Pseudomonas aeruginosa, 20 h, brain-heart infusion broth, 20hour incubation at 37° C., read-out: Minimal Inhibitory Test Conens. (MIC)
[17] = read-out: Minimal Inhibitory Test Conens. (MIC), Sal. typhi (02A)
[18] = read-out: Minimal Inhibitory Test Conens. (MIC), Sal. typhi (02B)
[19] = ED50 Anoroxia, 15 or fewer milk spots consumed by 5 mice
[20] = ED50 Hypertherm., rectal temperature
[21] = ED50 Hypotherm., rectal temperature
[22] = ED50 Vert. Bar, vertical bar loss
[23] = po, doses given in mg./kg, read-out: ED50 Ataxia
[24] = po, doses given in mg./kg, read-out: ED50 Excitation
[25] = po, doses given in mg./kg, read-out: ED50 Irritability
[26] = po, rectal temperature, doses given in mg./kg, read-out: ED50 Hypertherm.
[27] = po, rectal temperature, doses given in mg./kg, read-out: ED50 Hypotherm.
[28] = po, vertical bar loss, doses given in mg./kg, read-out: ED50 Vert. Bar

O=C(O)c1cn(C(F)F)c2cc3c(cc2c1=O)OCO3 [DFMQ, 1-difluoromethyl-6,7-methylenedioxy-1,4-dihydro-4-oxo-3-quinolinecarboxylic acid]
MIC [1]: < 0.08 µg/mL
MIC ([2]; E. coli (06-2B)): 2 µg/mL (≈ 7.06 µM)
MIC ([2]; E. coli (06-2F)): 0.4 µg/mL (≈ 1.41 µM)
MIC ([2]; E. coli (06-2L)): 10 µg/mL (≈ 35.3 µM)
MIC ([2]; E. coli (06-2M)): < 0.08 µg/mL
MIC ([2]; E. coli (06C)): 2 µg/mL (≈ 7.06 µM)
MIC ([2]; E. coli (06I)): 10 µg/mL (≈ 35.3 µM)
MIC ([2]; E. coli (06J)): 0.4 µg/mL (≈ 1.41 µM)
MIC ([2]; E. coli (06K)): 0.4 µg/mL (≈ 1.41 µM)
MIC ([2]; E. coli (06L)): 0.4 µg/mL (≈ 1.41 µM)
MIC ([2]; E. coli (06M)): 0.4 µg/mL (≈ 1.41 µM)
MIC ([2]; E. coli (06S)): 0.4 µg/mL (≈ 1.41 µM)
MIC ([2]; E. coli (06V)): 0.4 µg/mL (≈ 1.41 µM)
MIC ([2]; E. coli (06X)): 2 µg/mL (≈ 7.06 µM)
MIC ([2]; E.coli (06-2D)): 2 µg/mL (≈ 7.06 µM)
MIC [3]: 2 µg/mL (≈ 7.06 µM)
MIC [4]: < 0.08 µg/mL
MIC [5]: 2 µg/mL (≈ 7.06 µM)
MIC [6]: < 0.08 µg/mL
MIC ([7]; Sal. gallinarum (04C)): 2 µg/mL (≈ 7.06 µM)
MIC ([7]; Sal. gallinarum (04D)): 0.4 µg/mL (≈ 1.41 µM)
MIC ([8]; Sal. typhimurium (03A)): 0.4 µg/mL (≈ 1.41 µM)
MIC ([8]; Sal. typhimurium (03C)): 0.4 µg/mL (≈ 1.41 µM)
MIC ([8]; Sal. typhimurium (03K)): < 0.08 µg/mL
MIC [9, 17]: 2 µg/mL (≈ 7.06 µM)
MIC [9, 18]: 0.4 µg/mL (≈ 1.41 µM)
MIC [10]: 0.4 µg/mL (≈ 1.41 µM)
MIC [11]: 0.4 µg/mL (≈ 1.41 µM)
MIC [12]: 0.4 µg/mL (≈ 1.41 µM)
MIC [13]: < 0.08 µg/mL
LD50 at 24 h [14]: > 450 mg/kg
TD50 [14, 19]: > 450 mg/kg
TD50 ([14]; ED50 Ataxia): > 450 mg/kg
TD50 ([14]; ED50 Excitation): > 450 mg/kg
TD50 [14, 20]: > 450 mg/kg
TD50 [14, 21]: > 450 mg/kg
TD50 ([14]; ED50 Irritability): > 450 mg/kg
TD50 [14, 22]: > 450 mg/kg
LD50 at 24 h ([15]; po): > 324 mg/kg
TD50 [15, 23]: > 324 mg/kg
TD50 [15, 24]: > 324 mg/kg
TD50 [15, 25]: > 324 mg/kg
TD50 [15, 26]: > 324 mg/kg
TD50 [15, 27]: > 324 mg/kg
TD50 [15, 28]: > 324 mg/kg
MIC ([16]; Pseud. aeruginosa (11B)): 10 µg/mL (≈ 35.3 µM)
MIC ([16]; Pseud. aeruginosa (11C)): 2 µg/mL (≈ 7.06 µM)
MIC ([16]; Pseud. aeruginosa (11D)): 10 µg/mL (≈ 35.3 µM)
MIC ([16]; Pseud. aeruginosa (11G)): 10 µg/mL (≈ 35.3 µM)
MIC ([16]; Pseud. aeruginosa (11I)): 2 µg/mL (≈ 7.06 µM)
MIC ([16]; Pseud. aeruginosa (11J)): 10 µg/mL (≈ 35.3 µM)

CCn1cc(C(=O)O)c(=O)c2ccc(C)nc21 [Nalidixic Acid, nalidixic acid]
MIC [1]: 0.4 µg/mL (≈ 1.72 µM)
MIC ([2]; E. coli (06-2B)): > 10 µg/mL
MIC ([2]; E. coli (06-2F)): 2 µg/mL (≈ 8.61 µM)
MIC ([2]; E. coli (06-2L)): > 10 µg/mL
MIC ([2]; E. coli (06-2M)): 2 µg/mL (≈ 8.61 µM)
MIC ([2]; E. coli (06C)): > 10 µg/mL
MIC ([2]; E. coli (06I)): > 10 µg/mL
MIC ([2]; E. coli (06J)): 2 µg/mL (≈ 8.61 µM)
MIC ([2]; E. coli (06K)): 10 µg/mL (≈ 43.1 µM)
MIC ([2]; E. coli (06L)): 10 µg/mL (≈ 43.1 µM)
MIC ([2]; E. coli (06M)): 10 µg/mL (≈ 43.1 µM)
MIC ([2]; E. coli (06S)): 10 µg/mL (≈ 43.1 µM)
MIC ([2]; E. coli (06V)): 2 µg/mL (≈ 8.61 µM)
MIC ([2]; E. coli (06X)): 10 µg/mL (≈ 43.1 µM)
MIC ([2]; E.coli (06-2D)): 10 µg/mL (≈ 43.1 µM)
MIC [3]: > 10 µg/mL
MIC [4]: 2 µg/mL (≈ 8.61 µM)
MIC [5]: > 10 µg/mL
MIC [6]: 2 µg/mL (≈ 8.61 µM)
MIC ([7]; Sal. gallinarum (04C)): > 10 µg/mL
MIC ([7]; Sal. gallinarum (04D)): 10 µg/mL (≈ 43.1 µM)
MIC ([8]; Sal. typhimurium (03A)): 2 µg/mL (≈ 8.61 µM)
MIC ([8]; Sal. typhimurium (03C)): 2 µg/mL (≈ 8.61 µM)
MIC ([8]; Sal. typhimurium (03K)): 2 µg/mL (≈ 8.61 µM)
MIC [9, 17]: 10 µg/mL (≈ 43.1 µM)
MIC [9, 18]: 2 µg/mL (≈ 8.61 µM)
MIC [10]: 2 µg/mL (≈ 8.61 µM)
MIC [11]: > 10 µg/mL
MIC [12]: 2 µg/mL (≈ 8.61 µM)
MIC [13]: 10 µg/mL (≈ 43.1 µM)
LD50 at 24 h [14]: > 450 mg/kg
TD50 [14, 19]: 180 mg/kg
TD50 ([14]; ED50 Ataxia): 150 mg/kg
TD50 ([14]; ED50 Excitation): > 450 mg/kg
TD50 [14, 20]: > 450 mg/kg
TD50 [14, 21]: 187 mg/kg
TD50 ([14]; ED50 Irritability): > 450 mg/kg
TD50 [14, 22]: 187 mg/kg
LD50 at 24 h ([15]; oral, doses given in mg./kg, read-out: ED50 24-Hour Mort.): > 324 mg/kg
TD50 [15, 23]: 187 mg/kg
TD50 [15, 24]: > 324 mg/kg
TD50 [15, 25]: > 324 mg/kg
TD50 [15, 26]: > 324 mg/kg
TD50 [15, 27]: > 324 mg/kg
TD50 [15, 28]: 360 mg/kg
MIC ([16]; Pseud. aeruginosa (11B)): > 10 µg/mL
MIC ([16]; Pseud. aeruginosa (11C)): > 10 µg/mL
MIC ([16]; Pseud. aeruginosa (11D)): > 10 µg/mL
MIC ([16]; Pseud. aeruginosa (11G)): > 10 µg/mL
MIC ([16]; Pseud. aeruginosa (11I)): > 10 µg/mL
MIC ([16]; Pseud. aeruginosa (11J)): > 10 µg/mL

— patent US4216324A, “1-Difluoromethyl-6,7-methylenedioxy-1,4-dihyd ro-4-oxo-3-quinolinecarboxylic acid” (E. I. Du Pont de Nemours and Company, priority 1978, dated 1980)
